Data taken from article PMC6597546, “Identification of a potent benzoxaborole drug candidate for treating cryptosporidiosis” (Nature Communications, 2019).
Where “and” joins values, the source holds several entries; their conditions need not be identical. Equal entries are not always repeated. Where two headings read alike, the source gives them in different places.

How the values were obtained:
CYP3A4 = CYP3A4 (Homo sapiens, UniProt P08684); test: CYP450 inhibition 3A4; format: in vitro ADME
C. hominis TU502 isolate = test: C. hominis growth inhibition in HCT-8 cells; format: cell-based, Cryptosporidium hominis; conditions: single replicates, unit inferred, read-out: In vitro efficacy (Fig 2b, EC50)
Experimental: Follow-up assays were performed at the University of Vermont (UVM) and Calibr at Scripps Research by infection of the colonic adenocarcinoma cell line HCT-8 (ATCC CCL-244) and staining with the Vicia villosa lectin and DAPI[17],[32]. The FBS concentrations and parasites used for these assays were as indicated; parasite isolates and sources included C. parvum Iowa isolate oocysts purchased from Bunch Grass Farm (Deary, ID), C. parvum Iowa isolate oocysts purchased from the Sterling Laboratory (University of Arizona, Tucson, AZ), wild type C. parvum oocysts provided by Dr. Jenni Zambriski (Virginia Tech, Blacksburg, VA), and the C. hominis TU502 isolate purchased from Dr. Saul Tzipori (Tufts University Cummings School of Veterinary Medicine, North Grafton, MA).

CYP1A2 = molecular target: T1, CYP1A2 (Homo sapiens, UniProt P05177); test: CYP450 inhibition 1A2; format: in vitro ADME
T1 sequence (P05177 1-516): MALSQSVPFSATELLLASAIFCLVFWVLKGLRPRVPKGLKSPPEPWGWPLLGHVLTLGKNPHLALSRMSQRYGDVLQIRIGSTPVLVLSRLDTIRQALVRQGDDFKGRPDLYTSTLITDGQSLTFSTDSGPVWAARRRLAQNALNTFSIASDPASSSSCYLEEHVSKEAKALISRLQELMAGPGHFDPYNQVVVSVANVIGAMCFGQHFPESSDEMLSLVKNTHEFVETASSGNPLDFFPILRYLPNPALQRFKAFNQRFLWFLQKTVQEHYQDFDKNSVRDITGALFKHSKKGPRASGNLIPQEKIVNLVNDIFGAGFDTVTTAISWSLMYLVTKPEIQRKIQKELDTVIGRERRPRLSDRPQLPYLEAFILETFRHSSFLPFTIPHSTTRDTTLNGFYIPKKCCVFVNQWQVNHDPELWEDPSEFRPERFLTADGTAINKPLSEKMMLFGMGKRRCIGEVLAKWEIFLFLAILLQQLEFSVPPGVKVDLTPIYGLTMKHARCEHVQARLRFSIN

Cytotoxicity THP-1 (3d) = format: cell-based; conditions: human, THP-1 cells, 25 µM highest concentration tested
[1] = Plasma Protein Binding (mouse); format: in vitro ADME; conditions: read-out: Plasma Protein Binding (PPB) (converted)
[2] = system: Escherichia coli and Salmonella typhimurium; test: AMES bacterial reverse mutation assay; conditions: five strains with and without S9, up to 5000 µg per plate
Experimental: (§1) In vitro safety profiling studies were conducted by Ricerca Biosciences (Taipei, Taiwan) and WuXi AppTec (Suzhou, China). Ricerca performed a Lead Profiling and Adverse Reaction Enzyme panel of 109 off-target enzymes and receptors. This included the hERG K+ ion channel, which is associated with cardiac tachyarrhythmias, and used a radioligand binding competition format with 10 µM test compound for 1 h at 25 °C. For the enzyme and receptor panel, competitive inhibition at 10 µM of test compound was the most common assay format. The AMES bacterial reverse mutation assay detects point mutations in Escherichia coli and Salmonella typhimurium as an indicator of mutagenic activity. Bacterial strains were obtained from Molecular Toxicology (Boone, NC).

hERG K+ ion channel = molecular target: T2, hERG K+ ion channel (Homo sapiens, UniProt Q12809); test: hERG radioligand binding competition; conditions: 10 µM test compound, 1 h at 25 °C
T2 construct: Ricerca Biosciences (Taipei, Taiwan), contract laboratory
T2 sequence (Q12809 whole entry): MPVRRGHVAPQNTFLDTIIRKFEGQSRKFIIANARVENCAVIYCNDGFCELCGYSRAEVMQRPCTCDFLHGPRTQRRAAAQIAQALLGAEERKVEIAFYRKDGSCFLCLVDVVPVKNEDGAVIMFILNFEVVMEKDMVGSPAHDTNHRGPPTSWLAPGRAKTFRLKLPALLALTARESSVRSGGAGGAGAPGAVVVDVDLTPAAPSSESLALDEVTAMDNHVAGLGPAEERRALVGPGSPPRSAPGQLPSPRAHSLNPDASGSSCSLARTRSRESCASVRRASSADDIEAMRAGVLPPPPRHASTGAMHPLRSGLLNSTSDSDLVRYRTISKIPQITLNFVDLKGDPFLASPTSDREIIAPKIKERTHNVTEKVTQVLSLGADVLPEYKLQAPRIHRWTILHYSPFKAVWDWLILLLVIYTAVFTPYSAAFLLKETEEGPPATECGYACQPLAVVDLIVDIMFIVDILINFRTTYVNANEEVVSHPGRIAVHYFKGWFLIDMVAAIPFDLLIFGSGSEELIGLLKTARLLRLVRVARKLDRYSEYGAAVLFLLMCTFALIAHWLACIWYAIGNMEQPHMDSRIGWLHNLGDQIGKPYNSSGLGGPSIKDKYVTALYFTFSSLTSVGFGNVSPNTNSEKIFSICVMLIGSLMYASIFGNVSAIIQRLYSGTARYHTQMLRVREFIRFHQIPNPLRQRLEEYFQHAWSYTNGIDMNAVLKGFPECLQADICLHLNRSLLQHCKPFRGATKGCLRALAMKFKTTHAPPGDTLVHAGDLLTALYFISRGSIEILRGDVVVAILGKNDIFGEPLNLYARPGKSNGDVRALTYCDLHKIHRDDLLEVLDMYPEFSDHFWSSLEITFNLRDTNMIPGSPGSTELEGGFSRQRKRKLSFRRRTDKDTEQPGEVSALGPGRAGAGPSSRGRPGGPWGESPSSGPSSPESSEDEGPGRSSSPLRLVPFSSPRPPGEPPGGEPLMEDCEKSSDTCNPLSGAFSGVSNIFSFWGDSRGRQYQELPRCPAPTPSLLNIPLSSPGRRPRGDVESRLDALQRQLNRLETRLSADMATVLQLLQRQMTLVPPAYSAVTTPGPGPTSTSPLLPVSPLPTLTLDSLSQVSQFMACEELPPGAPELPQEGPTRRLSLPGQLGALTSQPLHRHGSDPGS
Experimental: as §1

[3] = system: C. parvum DMC1 positive parasites; test: Asexual-to-sexual stage conversion assay (DMC1 expression); format: cell-based, Cryptosporidium parvum
Experimental: The invasion assay, DNA replication assay, asexual to sexual stage conversion, and time-kill curve assays were performed using fluorescence microscopy to enumerate parasites and host cell nuclei. Staining protocols are individually described for each assay. Unless noted otherwise, the details of image acquisition were as follows. An inverted Nikon Eclipse Ti2000 microscope with an automated stage and Perfect Focus was used with NIS-Elements Advanced Research software (Nikon, USA, version 4.30.01) to image the wells. The microscope was programmed to focus on the center of each well and then take a 3 × 3 composite image per well using a 20 × (0.45 NA) objective. Images were exported as .tiff files and parasites and host nuclei counted using a custom macro on ImageJ (National Institutes of Health, version 1.52a). Data were analyzed using Microsoft Excel and GraphPad Prism (version 6.01). […] Amphotericin B (Sigma, catalog# A2942) was added to the culture media at 0.1 to 0.5 µg per mL for the DMC1 dose response assays.

Sequence of CYP3A4 (P08684 whole entry): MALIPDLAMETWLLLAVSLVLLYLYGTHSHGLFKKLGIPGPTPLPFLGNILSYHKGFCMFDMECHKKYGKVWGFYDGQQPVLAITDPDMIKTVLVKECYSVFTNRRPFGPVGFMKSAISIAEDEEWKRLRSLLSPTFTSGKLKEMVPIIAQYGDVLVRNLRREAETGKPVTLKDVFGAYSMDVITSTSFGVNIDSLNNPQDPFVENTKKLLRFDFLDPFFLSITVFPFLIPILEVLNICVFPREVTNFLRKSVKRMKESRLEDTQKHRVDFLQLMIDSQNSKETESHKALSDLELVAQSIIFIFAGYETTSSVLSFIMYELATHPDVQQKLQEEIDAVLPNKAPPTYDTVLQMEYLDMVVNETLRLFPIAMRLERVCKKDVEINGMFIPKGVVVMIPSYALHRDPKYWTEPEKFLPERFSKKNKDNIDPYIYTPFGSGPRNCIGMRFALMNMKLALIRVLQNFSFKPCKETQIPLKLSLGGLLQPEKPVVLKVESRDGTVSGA

Question: For `CC1(C)OB(O)c2cc(NC(=O)c3ccc(-n4cccn4)cc3Cl)ccc21` [AN7973], which inhibition at 10 µM (CYP3A4) is on record?
Answer: 1%

Question: What about the EC50 (C. hominis TU502 isolate; C. hominis (Tu502, 2%FBS)) of the same compound?
Answer: 570 nM and 580 nM

Question: And the EC50 (C. hominis TU502 isolate; Cryptosporidium hominis, HCT-8, C. hominis (Tu502, 2%FBS))?
Answer: 750 nM

Question: What about the inhibition at 10 µM (CYP1A2) of the same compound?
Answer: 1%

Question: What about the IC50 at 3 d (Cytotoxicity THP-1 (3d)) of the same compound?
Answer: > 25000 nM

Question: And the fraction unbound [1]?
Answer: 0.011

Question: And the “Ames test for mutagenic potential” value [2]?
Answer: negative

Question: What about the hERG inhibition (hERG K+ ion channel) of the same compound?
Answer: negative

Question: And the EC50 ([3]; Cryptosporidium parvum, BGF Iowa isolate, HCT-8, 10% FBS, DMC1, interval in parentheses, read-out: EC50 asexual-to-sexual conversion (48–72 h))?
Answer: 480 nM

Question: And the “% inhibition, 48 - 72 h DMC1 (asexual to sexual conversion)” value (from here on “% inhibition, 48 - 72 h DMC1”) ([3]; log [AN7973] (M) 0.10)?
Answer: 95.75%

Question: And the “% inhibition, 48 - 72 h DMC1” value ([3]; log [AN7973] (M) 0.28)?
Answer: 95.64% and 78.65%

Question: And the “% inhibition, 48 - 72 h DMC1” value ([3]; log [AN7973] (M) 0.40)?
Answer: 95.48%

Question: And the “% inhibition, 48 - 72 h DMC1” value ([3]; log [AN7973] (M) -0.20)?
Answer: 85.62% and 65.23% and 46.69%

Question: What about the “% inhibition, 48 - 72 h DMC1” value ([3]; log [AN7973] (M) -0.68) of the same compound?
Answer: -48.74% and -54.94% and -50.77%

Question: What about the “% inhibition, 48 - 72 h DMC1” value ([3]; log [AN7973] (M) -0.93) of the same compound?
Answer: -98.53%

Question: What about the “% inhibition, 48 - 72 h DMC1” value ([3]; log [AN7973] (M) -1.23) of the same compound?
Answer: -40.27%

Question: And the “% inhibition, 48 - 72 h DMC1” value ([3]; log [AN7973] (M) -1.53)?
Answer: -58.48%

Question: What about the “% inhibition, 48 - 72 h DMC1” value ([3]; log [AN7973] (M) -2.01) of the same compound?
Answer: -35.29%

Question: And the “% inhibition, 48 - 72 h DMC1” value ([3]; log [AN7973] (M) -2.48)?
Answer: -28.64%
